Publication PMC3880967, “Isolation of a novel alkaline-stable lipase from a metagenomic library and its specific application for milkfat flavor production” (Microbial Cell Factories, 2014)

target: T1, Est_p6 (uncultured bacterium, UniProt D7NJ22); assay: spectrophotometric pNP release at […] nm, Lineweaver-Burk; type: biochemical; conditions: 50 mM Tris-HCl pH 8.60, 50°C, 4% ethanol
T1 construct: predicted signal peptide (residues 1-26) removed, from residue 27 of 357; C-terminal 6xHis tag kept (pET-28a, NcoI/HindIII); E. coli BL21(DE3); Ni-NTA; 36 kDa by SDS-PAGE
T1 sequence (D7NJ22 27-357 limits assumed): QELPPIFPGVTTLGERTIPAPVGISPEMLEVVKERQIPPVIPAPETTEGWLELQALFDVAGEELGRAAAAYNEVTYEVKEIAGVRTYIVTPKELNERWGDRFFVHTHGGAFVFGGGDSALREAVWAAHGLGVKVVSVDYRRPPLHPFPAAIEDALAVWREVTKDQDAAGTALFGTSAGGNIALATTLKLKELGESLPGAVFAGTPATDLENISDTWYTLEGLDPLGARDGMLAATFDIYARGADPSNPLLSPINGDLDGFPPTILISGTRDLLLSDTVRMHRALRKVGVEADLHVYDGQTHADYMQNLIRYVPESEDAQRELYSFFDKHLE

| SMILES | Km [µM] |
| --- | --- |
| CCCCCCCC(=O)Oc1ccc([N+](=O)[O-])cc1 [C8, pNP caprylate] | 322 |
| CCCCCCCCCC(=O)Oc1ccc([N+](=O)[O-])cc1 [C10, pNP caprate] | 1280 |
| CCCCCCCCCCCC(=O)Oc1ccc([N+](=O)[O-])cc1 [C12, pNP laurate] | 149 |

More lines, now with the values ahead:

| Km [µM] | SMILES |
| --- | --- |
| 2640 | CC(=O)Oc1ccc([N+](=O)[O-])cc1 [C2, pNP acetate] |
| 1150 | CCCC(=O)Oc1ccc([N+](=O)[O-])cc1 [C4, pNP butyrate] |
